Results from patent US20100298249A1, “PHARMACEUTICAL OR COSMETIC PREPARATIONS FOR TOPICAL AND/OR PARENTERAL APPLICATION, PREPARATION METHODS THEREOF AND USE OF SAME” (priority 2007, published 2010).

Legend:
[1] = target: hyaluronidase of bovine origin (Bos taurus, UniProt Q2YDK3); test: Inhibitory effect on hyaluronidase activity of bovine origin (turbidimetry of nonhydrolysed hyaluronic acid); type: biochemical; conditions: various concentrations, FIG. 1
Protocol: Determination of the IC50 of GLZ, with or without Preincubation at 37° C.: GLZ, at various concentrations, is or is not preincubated for 20 minutes at 37° C. in the presence of the enzyme. The enzyme reaction is triggered by adding the hyaluronic acid solution (time T0). After incubation for 20 minutes, the nonhydrolysed hyaluronic acid is precipitated by adding acidic bovine albumin solution. In order to verify that the preincubation step has no effect on the stability of the hyaluronidase, an aliquot of a solution of the enzyme is placed at 37° C. for 20 minutes. Another aliquot is conserved in an ice bath for 19 minutes, and is then incubated at 37° C. for 1 minute. A solution of hyaluronic acid is then added to each aliquot (T0). After incubation for 15, 30 or 45 minutes, the nonhydrolysed hyaluronic acid is precipitated by addition of acidic bovine albumin solution. After the precipitation step, the turbidimetry of the solutions is determined on a spectrophotometer at a wavelength of 600 nm. The optical density (OD) of these solutions is subtracted from the OD of a control solution of hyaluronic acid (of the same concentration) not hydrolysed by the enzyme. This difference in OD, which is inversely proportional to the concentration of hyaluronic acid, is used to measure the activity of the hyaluronidase.

[2] = humans; cited from earlier work

hyaluronidase of bovine origin, sequence (Q2YDK3 entry or part of it): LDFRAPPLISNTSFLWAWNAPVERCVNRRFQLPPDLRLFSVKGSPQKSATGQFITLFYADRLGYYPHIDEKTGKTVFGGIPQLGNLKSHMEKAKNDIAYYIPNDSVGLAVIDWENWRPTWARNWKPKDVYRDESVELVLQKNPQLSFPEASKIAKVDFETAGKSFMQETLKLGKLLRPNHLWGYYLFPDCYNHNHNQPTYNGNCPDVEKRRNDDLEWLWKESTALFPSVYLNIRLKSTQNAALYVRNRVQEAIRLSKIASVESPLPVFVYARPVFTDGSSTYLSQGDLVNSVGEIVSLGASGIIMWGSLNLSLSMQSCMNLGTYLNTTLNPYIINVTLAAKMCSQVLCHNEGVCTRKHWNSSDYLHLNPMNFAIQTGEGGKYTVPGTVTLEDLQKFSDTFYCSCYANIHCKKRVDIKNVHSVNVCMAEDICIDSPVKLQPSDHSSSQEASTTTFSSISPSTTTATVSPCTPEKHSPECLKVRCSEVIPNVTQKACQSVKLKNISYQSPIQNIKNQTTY

Row | Compound | inhibitory effect on the bovine hyaluronidase [1] | excretion in the urine [2]
1 | CC1(C)[C@@H](O[C@H]2O[C@H](C(=O)O)[C@@H](O)[C@H](O)[C@H]2O[C@@H]2O[C@H](C(=O)O)[C@@H](O)[C@H](O)[C@H]2O)CC[C@]2(C)[C@H]3C(=O)C=C4[C@@H]5C[C@@](C)(C(=O)O)CC[C@]5(C)CC[C@@]4(C)[C@]3(C)CC[C@@H]12 [GLZ, Glycyrrhizin] | dose-dependent | 
2 | hyaluronic acid |  | less than 1 % of total clearance
